Reference: the supplement of paper PMC10307832

Key:
Test in all cases: relative viability (nuclei count vs DMSO), 5 days (fraction); higher = more cells survive
[1] = compound: COc1cccc2cc(-c3nc([C@H]4CC[C@H](C(=O)O)CC4)n4ncnc(N)c34)[nH]c12 [OSI-027] + O=C(c1cc(Cc2n[nH]c(=O)c3ccccc23)ccc1F)N1CCN(C(=O)C2CC2)CC1 [Olaparib] (partner 8 µM)
Method in brief: (§1)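 Lung cancer cell lines were seeded in 1536-well plates and dosed by pin tool the next day, with either a single drug or a fixed anchor-drug dose combined with five library-drug doses (not always all listed) spaced in √10 steps. Five days later, one step fixed the cells and stained their nuclei (final 0.05% Triton X-100, 1% formaldehyde, 1 ug/ml Hoechst), and nuclei were counted on 4× images. Relative viability is the nuclei count in treated wells divided by the count in vehicle wells, and each value is the median of duplicate plates.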

[2] = compound: Cc1nc(NC(=O)N2CCC[C@H]2C(N)=O)sc1-c1ccnc(C(C)(C)C(F)(F)F)c1 [Alpelisib] + C[C@@H](Oc1cc(-c2cnn(C3CCNCC3)c2)cnc1N)c1c(Cl)ccc(F)c1Cl [Crizotinib] (partner 1 µM)
Method in brief: as §1

[3] = compound: CCCS(=O)(=O)Nc1ccc(F)c(C(=O)c2c[nH]c3ncc(-c4ccc(Cl)cc4)cc23)c1F [Vemurafenib] + Cc1nc(NC(=O)N2CCC[C@H]2C(N)=O)sc1-c1ccnc(C(C)(C)C(F)(F)F)c1 [Alpelisib] (partner 2 µM)
Method in brief: as §1

[4] = compound: COc1cccc2cc(-c3nc([C@H]4CC[C@H](C(=O)O)CC4)n4ncnc(N)c34)[nH]c12 [OSI-027] + Cc1cc(Nc2cc(N3CCN(C)CC3)nc(Sc3ccc(NC(=O)C4CC4)cc3)n2)n[nH]1 [Tozasertib] (partner 0.1 µM)
Method in brief: as §1

Cell Line | relative viability ([1]; first compound 0.01 µM) | relative viability ([1]; first compound 0.03162 µM) | relative viability ([1]; first compound 0.1 µM) | relative viability ([1]; first compound 0.3162 µM) | relative viability ([1]; first compound 1 µM) | relative viability ([2]; first compound 0.04 µM) | relative viability ([2]; first compound 0.1265 µM) | relative viability ([2]; first compound 0.4 µM) | relative viability ([2]; first compound 1.265 µM) | relative viability ([2]; first compound 4 µM) | relative viability ([3]; first compound 0.03162 µM) | relative viability ([3]; first compound 0.1 µM) | relative viability ([3]; first compound 0.3162 µM) | relative viability ([3]; first compound 1 µM) | relative viability ([4]; first compound 0.01 µM) | relative viability ([4]; first compound 0.03162 µM) | relative viability ([4]; first compound 0.1 µM) | relative viability ([4]; first compound 0.3162 µM) | relative viability ([4]; first compound 1 µM)
LCLC-97TM1 | 0.59 | 0.438 | 0.325 | 0.281 | 0.347 | 0.343 | 0.295 | 0.427 | 0.208 | 0.157 | 0.26 | 0.233 | 0.275 | 0.262 | 0.299 | 0.192 | 0.228 | 0.18 | 0.0982
NCI-H2085 | 0.751 | 0.771 | 0.726 | 0.763 | 0.633 | 0.808 | 0.769 | 0.758 | 0.814 | 0.796 | 0.956 | 0.826 | 0.902 | 1 | 0.785 | 0.654 | 0.741 | 0.784 | 0.568
NCI-H647 | 0.681 | 0.613 | 0.56 | 0.463 | 0.398 | 1.03 | 1.08 | 1.11 | 0.933 | 0.913 | 0.898 | 1.12 | 0.995 | 0.891 | 0.401 | 0.291 | 0.292 | 0.433 | 0.147
BEN | 1.15 | 1.19 | 0.769 | 0.554 | 0.527 | 0.956 | 0.95 | 1.04 | 0.884 | 0.866 | 0.966 | 0.98 | 0.793 | 0.784 | 0.566 | 0.625 | 0.469 | 0.529 | 0.383
NCI-H1944 | 0.371 | 0.373 | 0.422 | 0.355 | 0.265 | 1.01 | 1.24 | 1.14 | 0.725 | 0.523 | 0.811 | 0.572 | 0.85 | 0.837 | 0.239 | 0.251 | 0.22 | 0.221 | 0.175
201T | 0.909 | 0.908 | 0.838 | 0.887 | 0.802 | 0.985 | 1 | 1.07 | 0.98 | 0.936 | 0.974 | 0.96 | 1.05 | 0.981 | 1 | 0.96 | 0.946 | 0.914 | 0.736
NCI-H2405 | 0.886 | 0.838 | 0.823 | 0.694 | 0.456 | 0.858 | 0.772 | 0.889 | 0.662 | 0.735 | 0.708 | 0.675 |  | 0.785 | 0.754 | 0.715 | 0.76 | 0.79 | 0.467
RERF-LC-KJ | 0.829 | 0.866 | 0.82 | 0.798 | 0.496 | 0.76 | 0.77 | 0.83 | 0.787 | 0.741 | 0.583 | 0.686 | 0.873 | 0.771 | 0.453 | 0.531 | 0.477 | 0.468 | 0.385
NCI-H596 | 0.743 | 0.688 | 0.651 | 0.684 | 0.612 | 1.06 | 1.01 | 0.841 | 0.616 | 0.406 | 0.526 | 0.48 | 0.475 | 0.42 | 0.999 | 0.804 | 0.859 | 0.811 | 0.47
NCI-H1993 | 1.03 | 0.894 | 0.902 | 0.653 | 0.522 | 0.817 | 0.845 | 0.799 | 0.603 | 0.604 | 0.62 |  | 0.585 | 0.647 | 0.574 | 0.56 | 0.546 | 0.49 | 0.456
EPLC-272H | 0.714 | 0.495 | 0.661 | 0.386 | 0.298 | 0.75 | 0.788 | 1.09 | 0.713 | 0.653 | 0.927 | 0.676 | 0.942 | 0.889 | 0.139 | 0.277 | 1.01 | 0.162 | 0.143
NCI-H1915 | 0.284 | 0.274 | 0.259 | 0.298 | 0.237 | 0.903 | 0.936 | 0.988 | 0.78 | 0.8 | 1.02 | 1.04 | 1.03 | 0.993 | 0.488 | 0.445 | 0.525 | 0.475 | 0.404
LC-2-ad | 0.774 | 0.721 | 0.836 | 0.87 | 0.737 | 0.501 | 0.316 | 0.532 | 0.351 | 0.386 | 0.831 | 0.557 | 0.867 | 0.877 | 0.464 | 0.4 | 0.449 | 0.443 | 0.397
NCI-H2126 | 0.939 | 0.904 | 0.879 | 0.835 | 0.578 | 1.02 | 0.957 | 0.992 | 0.88 | 0.735 | 0.718 | 0.709 | 0.758 | 0.789 | 0.811 | 0.848 | 0.725 | 0.745 | 0.538
HCC-44 | 1.06 | 1.01 | 1 | 1 | 0.716 | 0.78 | 0.723 | 0.833 | 0.773 | 0.634 | 0.761 | 0.755 | 0.784 | 0.795 | 0.945 | 0.859 | 1.05 | 0.84 | 0.685
HOP-62 | 0.605 | 0.68 | 0.456 | 0.594 | 0.167 | 0.97 | 0.714 | 0.884 | 0.733 | 0.72 | 1.09 | 0.954 | 0.928 | 0.808 | 0.382 | 0.39 | 0.369 | 0.442 | 0.277
